Patent US20250000879A1, “PHARMACEUTICAL COMPOSITION FOR PREVENTING DIABETES AND USE THEREOF” (HANYI BIO-TECHNOLOGY (BEIJING) CO., LTD., priority 2018, published 2025)

Tests used:
mouse diarrhea model = assay: Diarrhea index in mouse diarrhea model induced by Folium Sennae; assay type: in vivo, mice; conditions: days 1-7, FIG. 4A to 4G
Protocol: ICR female mice of 4-6 weeks old were used as experimental animals. The mice ate and drank normally, and were given 8% (w/w) Folium Sennae solution by gavage, 0.2 ml/mouse. Diarrhea index of the mice was counted every other one and a half hours for 6 hours. Folium Sennae was purchased from Tongrentang Pharmacy in Beijing. The 8% (w/w) Folium Sennae solution was prepared by boiling 8 parts by weight of Folium Sennae and 92 parts by weight of water in a conical flask for 10 min.
The mice were randomly divided into 7 groups with 10 mice in each group: • Group 1: the mice were given the same volume of water by gavage every day; • Group 2: the mice were given 150 mg/kg of metformin by gavage every day; • Group 3: the mice were given 50 mg/kg of CBD by gavage every day; • Group 4: the mice were given 8% Folium Sennae solution by gavage every day; • Group 5: the mice were given a mixed solution of 8% Folium Sennae solution and 150 mg/kg of metformin by gavage every day; • Group 6: the mice were given a mixed solution of 8% Folium Sennae solution and 50 mg/kg of CBD by gavage every day; and • Group 7: the mice were given a mixed solution of 8% Folium Sennae solution, 150 mg/kg of metformin and 50 mg/kg of CBD by gavage every day.
Every day after gavage, the diarrhea index of each mouse was counted every other one and a half hours, 4 times in total […].
Diarrhea index=loose stool rate*loose stool grade
• Diarrhea rate: the number of animals with loose stools in this group/the total number of animals in this group*100%; • Loose stool rate: the number of loose stools per animal/the total number of stools; and • Loose stool grade: the hardness of loose stool graded according to the size of stains on filter paper with loose stool, as shown in Table 1 below.

[1] = test system: mouse lactic acidosis model; assay: Blood lactic acid concentration in mouse lactic acidosis model induced by metformin; assay type: in vivo, mice; conditions: FIG. 5
Protocol: ICR male mice aged 4-6 weeks were used as experimental animals. The mice were administrated by gavage with metformin (260 mg/kg) for induction for three times, with an interval of 12 hours.
The mice were randomly divided into seven groups with five mice in each group: • Group 1: control group, no treatment; • Group 2: given water by gavage every day; • Group 3: given CBD by gavage once a day, 50 mg/kg; • Group 4: given 260 mg/kg of metformin by gavage in the morning and evening on the first day, and 260 mg/kg of metformin by gavage in the next morning, and sampled at […] in the next day; • Group 5: given 260 mg/kg of metformin by gavage in the morning and evening on the first day, and 260 mg/kg of metformin by gavage in the next morning, given 50 mg/kg of CBD at the same time metformin was given by gavage, and sampled at […] in the next day. • Group 6: injected with 260 mg/kg of metformin by caudal vein every other one hour for four times, and sampled one hour after the fourth injection; and • Group 7: given 50 mg/kg of CBD by gavage half an hour before caudal vein injection, injected with 260 mg/kg of metformin by caudal vein half an hour later, once every other hour, four times in total, and sampled one hour after the fourth injection. […]

[2] = test system: diabetes model mice fed with high-fat feed; assay: Serum lipid and insulin levels in mice induced by STZ and high-fat feed; assay type: in vivo; conditions: metformin alone, 100 or 250 mg/kg by gavage once a day; two months of treatment; FIG. 6E
Protocol: After the mice were fasted for 10-12 hours, they were injected with 50 mg/kg of streptozotocin (STZ) intraperitoneally for 5 consecutive days.

[3] = test system: mouse model of type 1 diabetes; assay: Glucose tolerance test (GTT) in STZ-induced mouse model of type 1 diabetes; assay type: in vivo, mice; conditions: FIG. 1B
Protocol: (§1) C57 male mice aged 4-6 weeks were used as experimental animals. After the mice were fasted for 10-12 hours, they were injected with 50 mg/kg of streptozotocin (STZ) intraperitoneally for 5 consecutive days. Fasting blood glucose levels of mice on the 6th and 10th days were measured to determine whether the induction was successful (the induction was considered successful when fasting blood glucose was greater than 11.1 mmol/L). The mice were applied to Group 2 to 6 in the following step 2). […]
(§2) Fasting blood glucose of mice in each group was detected every other three to four weeks; after one month of administration (the model was stable), a glucose tolerance test (GTT) was carried out. […] The blood glucose of the mice before injection (0 min) and at 15 min, 30 min, 60 min and 120 min after injection were measured respectively.

[4] = test system: mouse model of type 2 diabetes; assay: Insulin tolerance test (ITT) in STZ and high-fat feed mouse model of type 2 diabetes; assay type: in vivo, mice; conditions: CBD 50 mg/kg by gavage once a day; one month after administration; FIG. 2C
Protocol: (§3) C57 male mice aged 4-6 weeks were used as experimental animals. The mice were fed with high-fat feed. After the mice were fasted for 10-12 hours, they were injected with 50 mg/kg of streptozotocin (STZ) intraperitoneally for 5 consecutive days. […] The mice were applied to Group 2 to 8 in the following step 2).
(§4) High-fat feed was formed by adding 60% fat to normal feed.

[5] = test system: mouse model of chronic renal failure induced by adriamycin; assay: Urinary total protein in mice with chronic renal failure induced by adriamycin; assay type: in vivo; conditions: CBD 50 mg/kg by gavage once a day; urine on the 14th day of nephropathy induction; FIG. 7
Protocol: A mouse model of chronic renal failure induced by adriamycin was constructed according to a conventional method of inducing kidney injury. After CBD treatment for 14 days, urinary total protein level was measured. The specific method is as follows: Kunming white male mice aged 4-6 weeks were used as experimental animals. After the mice were fasted for 10-12 hours, they were injected with 50 mg/kg of streptozotocin (STZ) intraperitoneally for 5 consecutive days. […] On the 7th day after diabetes induction, the mice in the nephropathy group were injected with adriamycin at 10 mg/kg by caudal vein. The mice were applied to the Group 3 to 6 in the following step 2). The experimental animals were randomly divided into 6 groups with 10 animals in each group: • Group 1: control group, fed with normal saline; • Group 2: diabetes group; • Group 3: diabetes+CBD group; given CBD by gavage, 50 mg/kg, once a day; • Group 4: diabetes+adriamycin group; • Group 5: diabetes+adriamycin+CBD group; given CBD by gavage, 50 mg/kg, once a day; and • Group 6: diabetes+adriamycin+metformin group; given metformin by gavage, 50 mg/kg, once a day. After successfully inducing the mouse diabetes model, the mice were injected with adriamycin through caudal vein to induce nephropathy model. Urine was collected from the mice on the 14th day of the induction of nephropathy model, and urinary total protein was detected.

[6] = test system: patients with type 2 diabetes; assay: Fasting blood glucose and glycosylated hemoglobin in diabetic volunteers; assay type: in vivo, human; conditions: oral CBD 300 mg/day, after 8 weeks, three patients
Protocol: Every patient received oral CBD treatment at 300 mg/day for 8 weeks. Fasting blood glucose was measured at the 0th, 4th and 8th weeks. Glycosylated hemoglobin value was measured at the 0th and 8th weeks. The results are shown in FIG. 8A and FIG. 8B, respectively.

[7] = test system: mouse model of type 1 diabetes; assay: Insulin tolerance test (ITT) in STZ-induced mouse model of type 1 diabetes; assay type: in vivo, mice; conditions: FIG. 1C
Protocol: as §1
One week after GTT, an insulin tolerance test (ITT) was carried out. […] The blood glucose of the mice before injection (0 min) and at 15 min, 30 min, 60 min and 120 min after injection were measured respectively.

[8] = test system: mouse model of type 2 diabetes; assay: Fasting blood glucose in STZ and high-fat feed mouse model of type 2 diabetes; assay type: in vivo, mice
Protocol: as §3, §4

[9] = test system: mouse model of type 2 diabetes; assay: Glucose tolerance test (GTT) in STZ and high-fat feed mouse model of type 2 diabetes; assay type: in vivo, mice; conditions: CBD 50 mg/kg by gavage once a day; one month after administration; FIG. 2B
Protocol: C57 male mice aged 4-6 weeks were used as experimental animals. The mice were fed with high-fat feed. After the mice were fasted for 10-12 hours, they were injected with 50 mg/kg of streptozotocin (STZ) intraperitoneally for 5 consecutive days. […] The mice were applied to Group 2 to 8 in the following step 2). High-fat feed was formed by adding 60% fat to normal feed. […] One month after administration (after the type 2 diabetes model was stabilized,), a glucose tolerance test (GTT) was carried out. The mice were fasted for 10 hours, and injected with 20% (w/w) glucose was intraperitoneally according to their body weights (10 μl/g).

[10] = test system: DB/DB mice (spontaneous type 2 diabetic mice); assay: Blood glucose of DB/DB mice after administration treatment; assay type: in vivo; conditions: CBD alone 50 mg/kg, intragastric, once a day
Protocol: In order to study the effect of combined use of CBD and metformin, adult DB/DB mice (spontaneous type 2 diabetic mice, purchased from Model Animal Center of Nanjing University) were randomly divided into 5 groups, with 6 mice in each group: • Group 1: control group, no treatment; • Group 2: CBD alone administration group (50 mg/kg); • Group 3: low-dose metformin group (100 mg/kg, calculated by referring to the lowest dose for human, and the dose for mice=9.1×the dose for human); • Group 4: low-dose metformin (100 mg/kg)+CBD (50 mg/kg) group; and • Group 5: high-dose metformin group (250 mg/kg, calculated by referring to the lowest dose for human, and the dose for mice=9.1×the dose for human).
Group 3 and Group 5 were both positive control groups of the treatment group, Group 3 was low-dose metformin group, and Group 5 was high-dose metformin group.
The administration routes of the above five groups were all intragastric administration, once a day
After 4 weeks of administration, blood glucose of mice in each group was measured.

[11] = test system: mouse model of type 1 diabetes; assay: Fasting blood glucose in STZ-induced mouse model of type 1 diabetes; assay type: in vivo, mice; conditions: FIG. 1A; for fasting blood glucose: after 10 days
Protocol: C57 male mice aged 4-6 weeks were used as experimental animals. After the mice were fasted for 10-12 hours, they were injected with 50 mg/kg of streptozotocin (STZ) intraperitoneally for 5 consecutive days. Fasting blood glucose levels of mice on the 6th and 10th days were measured to determine whether the induction was successful (the induction was considered successful when fasting blood glucose was greater than 11.1 mmol/L). The mice were applied to Group 2 to 6 in the following step 2).
The mice were randomly divided into 6 groups with 10 mice in each group: • Group 1: blank control group, fed with normal feed and intraperitoneally injected with a buffer solution at a dose of 100 μl/mouse, once a day for 5 consecutive days; • wherein, the buffer solution was a citric acid buffer solution with a concentration of 0.1 mol/L and pH of 4.2 and was sterilized by suction filtration. • Group 2: diabetes model group, fed with normal feed and intraperitoneally injected with streptozotocin; • Group 3: CBD prevention group, fed with normal feed, intraperitoneally injected with streptozotocin, and given CBD by gavage from the first day of induction, 50 mg/kg, once a day; • Group 4: CBD treatment group, fed with normal feed, intraperitoneally injected with streptozotocin, and given CBD by gavage after successful induction, 50 mg/kg, once a day; • Group 5: positive drug control group, fed with normal feed, intraperitoneally injected with streptozotocin, and injected with insulin after successful induction, 0.2 U/kg, once a day; and • Group 6: metformin group, fed with normal feed, intraperitoneally injected with streptozotocin, and given metformin by gavage after successful induction, 50 mg/kg, once a day.
as §2

`CN(C)C(=N)N=C(N)N` [metformin, Metformin, reference compound] was tested, and the diarrhea index (mouse diarrhea model; metformin 150 mg/kg with 8% Folium Sennae solution by gavage every day) was “aggravate diarrhea induced by Folium Sennae”, the “lactic acid concentration in blood” value ([1]; metformin 260 mg/kg, by gavage three times or by caudal vein four times) was “induce lactic acidemia” and the “insulin level in serum (insulin secretion)” value [2] was “could not increase insulin secretion”.
With `C=C(C)[C@@H]1CCC(C)=C[C@H]1c1c(O)cc(CCCCC)cc1O` [CBD, Cannabidiol] the “GTT, CBD prevention group compared with CBD treatment group” value ([3]; 50 mg/kg by gavage once a day) was “the CBD prevention group had a better effect than the CBD treatment group”, the “glucose tolerance test (GTT), regulation of glucose” value ([3]; CBD 50 mg/kg by gavage once a day, after one month of administration) was “significantly enhance regulation of glucose in the mice” and the “insulin tolerance test (ITT), sensitivity to insulin” value [4] was “improve sensitivity of the mice to insulin”. For the same compound, the “diarrhea index, diarrhea induced and aggravated by metformin” value (mouse diarrhea model; CBD 50 mg/kg with 8% Folium Sennae solution and 150 mg/kg metformin by gavage every day) was “significantly alleviate”, the “diarrhea index, diarrhea induced by Folium Sennae” value (mouse diarrhea model; CBD 50 mg/kg with 8% Folium Sennae solution by gavage every day) was “significantly alleviate” and the “lactic acid concentration in blood” value ([1]; CBD 50 mg/kg by gavage with metformin 260 mg/kg (gavage or caudal vein)) was “significantly inhibit the increase of lactic acid in blood induced by metformin”. The “urinary total protein level” value [5] was “significantly reduce urinary total protein level”, the fasting blood glucose ([6]; FIG. 8A) was “decreased significantly” and the glycosylated hemoglobin ([6]; FIG. 8B) was “improved significantly”. For the same compound, the “ITT, CBD prevention group compared with CBD treatment group” value ([7]; 50 mg/kg by gavage once a day) was “the CBD prevention group had a better effect than the CBD treatment group”, the “insulin tolerance test (ITT), sensitivity to insulin” value ([7]; CBD 50 mg/kg by gavage once a day, one week after GTT) was “significantly enhance sensitivity of the mice to insulin” and the “CBD prevention group compared with CBD treatment group (fasting blood glucose, GTT, ITT)” value ([8]; 50 mg/kg by gavage once a day, FIG. 2A to FIG. 2C) was “the CBD prevention group had a better effect than the CBD treatment group”. The fasting blood glucose ([8]; CBD 50 mg/kg by gavage once a day, FIG. 2A) was “significantly reduce the blood glucose elevation induced by STZ and high-fat feed”, the “glucose tolerance test (GTT), regulation of glucose” value [9] was “improve regulation of glucose in the mice induced by STZ and high-fat feed” and the blood glucose [10] was “reduce blood glucose”. For the same compound, the “fasting blood glucose, CBD prevention group compared with CBD treatment group” value ([11]; 50 mg/kg by gavage once a day) was “the CBD prevention group had a better effect than the CBD treatment group”, the fasting blood glucose ([11]; CBD prevention group: 50 mg/kg by gavage once a day from the first day of STZ induction) was “significantly reduce the blood glucose increase caused by STZ” and the fasting blood glucose ([11]; CBD treatment group: 50 mg/kg by gavage once a day after successful induction) was “significantly reduce the blood glucose increase caused by STZ”.
